Data: PubChem BioAssay (NCI)
Values joined by “and” are separate entries in the source; they are usually repeats but may differ in a detail not shown here. Equal values may be shown once.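 Dose response: 5 concentrations. Exposure: 48 h. Format: 96-well plates. Endpoint: linear interpolation; highest concentration if not reached. The concentration for 50% growth inhibition is given as GI50. TGI denotes the concentration required for complete inhibition of growth.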

Experiments:
Test in all cases: DTP human tumour cell line panel, 48 h
NCI-H460 lung = test system: NCI-H460 lung
KM12 colon = test system: KM12 colon
EKVX NSCLC = test system: EKVX NSCLC
T-47D breast = test system: T-47D breast
BT-549 breast = test system: BT-549 breast
M14 melanoma = test system: M14 melanoma
IGROV1 ovarian = test system: IGROV1 ovarian
UACC-257 melanoma = test system: UACC-257 melanoma
MDA-MB-231 breast = test system: MDA-MB-231 breast
HOP-92 NSCLC = test system: HOP-92 NSCLC

## Cc1cc2c(cc1Cl)SC(N(N(C)C)S(=O)(=O)c1ccc(Cl)cc1)=NS2(=O)=O
NCI-H460 lung
  GI50: 16.9 µM
  TGI: 45.5 µM
KM12 colon
  GI50: 22.9 µM
  TGI: > 100 µM
EKVX NSCLC
  GI50: 26.6 µM
  TGI: 79.6 µM
T-47D breast
  GI50: 15.8 µM
  TGI: > 100 µM
BT-549 breast
  GI50: 19.4 µM
  TGI: 48.7 µM
M14 melanoma
  GI50: 27.8 µM
  TGI: > 100 µM
IGROV1 ovarian
  GI50: 31.8 µM
  TGI: > 100 µM
UACC-257 melanoma
  GI50: 23.8 µM
  TGI: 88.5 µM
MDA-MB-231 breast
  GI50: 22.5 µM
  TGI: 55 µM
HOP-92 NSCLC
  GI50: 14.8 µM
  TGI: 35.3 µM

## CN(C)CCSC1=Nc2ccc(Cl)cc2C(c2ccccc2Cl)=NC1
NCI-H460 lung
  GI50: 14.9 µM and 68.1 µM
  TGI: 30.7 µM and > 100 µM
KM12 colon
  GI50: 16.5 µM and 44.1 µM
  TGI: 34.3 µM and > 100 µM
EKVX NSCLC
  GI50: 14.8 µM and 43.4 µM
  TGI: 29.9 µM and > 100 µM
T-47D breast
  GI50: 19.2 µM and 78.3 µM
  TGI: 47.3 µM and > 100 µM
BT-549 breast
  TGI: > 100 µM
M14 melanoma
  GI50: 15.8 µM and > 100 µM
  TGI: 36.4 µM and > 100 µM
IGROV1 ovarian
  TGI: > 100 µM
UACC-257 melanoma
  GI50: 13.4 µM and > 100 µM
  TGI: 26.3 µM and > 100 µM
MDA-MB-231 breast
  GI50: 10.7 µM and > 100 µM
  TGI: 22.8 µM and > 100 µM
HOP-92 NSCLC
  GI50: 12.3 µM and 72.3 µM
  TGI: 31.7 µM and > 100 µM

## CCN(CC)c1ccc(-c2cc(-c3cc(OC)c(OC)c(OC)c3)nc(N3CCOCC3)c2C#N)cc1
NCI-H460 lung
  GI50: 0.412 µM
  TGI: 5.73 µM
KM12 colon
  GI50: 1.99 µM
  TGI: > 85.9 µM
EKVX NSCLC
  GI50: 2.64 µM
  TGI: > 100 µM
T-47D breast
  GI50: 1.29 µM
  TGI: > 100 µM
BT-549 breast
  GI50: 0.48 µM
  TGI: > 100 µM
M14 melanoma
  GI50: 0.292 µM
  TGI: 1.33 µM
IGROV1 ovarian
  GI50: 2.83 µM
  TGI: > 100 µM
UACC-257 melanoma
  GI50: 2.57 µM
  TGI: > 100 µM
MDA-MB-231 breast
  GI50: 0.519 µM
  TGI: > 20.8 µM
HOP-92 NSCLC
  GI50: 0.796 µM
  TGI: 4.42 µM

## Fc1cc2[nH]ncc2c2c3c(c(-c4cn[nH]c4)nc12)CCCC3
NCI-H460 lung
  GI50: 0.845 µM
  TGI: 4.69 µM
KM12 colon
  GI50: 1 µM
  TGI: 7.38 µM
EKVX NSCLC
  GI50: 0.795 µM
  TGI: 3.98 µM
T-47D breast
  GI50: 1.26 µM
  TGI: > 21.5 µM
BT-549 breast
  GI50: 1.38 µM
  TGI: 4.94 µM
M14 melanoma
  GI50: 0.541 µM
  TGI: 4.54 µM
IGROV1 ovarian
  GI50: 0.521 µM
  TGI: 9.56 µM
UACC-257 melanoma
  GI50: 1.72 µM
  TGI: 5.69 µM
MDA-MB-231 breast
  GI50: 1.5 µM
  TGI: 5.24 µM
HOP-92 NSCLC
  GI50: 1.48 µM
  TGI: 5.66 µM

## C[C@@H]1CCC2[C@@H](C)[C@@H](OCC(CO[C@H]3OC4O[C@@]5(C)CC[C@H]6[C@H](C)CCC([C@H]3C)[C@@]46OO5)OC(=O)CCC(=O)O)OC3O[C@@]4(C)CC[C@@H]1[C@]32OO4 (some centres not stated)
NCI-H460 lung
  GI50: < 0.0183 µM
  TGI: 15.8 µM
KM12 colon
  GI50: < 0.01 µM
EKVX NSCLC
  GI50: 3.03 µM
  TGI: 41 µM
T-47D breast
  GI50: < 0.01 µM
  TGI: > 100 µM
BT-549 breast
  GI50: 3.74 µM
  TGI: 29.4 µM
M14 melanoma
  GI50: 4.05 µM
  TGI: 26.9 µM
IGROV1 ovarian
  GI50: 12.6 µM
  TGI: > 69 µM
UACC-257 melanoma
  GI50: 0.708 µM
  TGI: 37.3 µM
MDA-MB-231 breast
  GI50: 0.0602 µM
  TGI: 7.95 µM
HOP-92 NSCLC
  GI50: 0.097 µM
  TGI: 3.26 µM

## O=C(Nc1ccc(Cl)cc1)c1cccc(NC2=C(Cl)C(=O)N(Cc3ccccc3)C2=O)c1
NCI-H460 lung
  GI50: 15.2 µM
  TGI: 35 µM
KM12 colon
  GI50: 48.5 µM
  TGI: > 100 µM
EKVX NSCLC
  GI50: 27.3 µM
  TGI: > 100 µM
T-47D breast
  GI50: 11.4 µM
  TGI: 78.5 µM
BT-549 breast
  GI50: 2.16 µM
  TGI: 13.2 µM
M14 melanoma
  GI50: 14.5 µM
  TGI: 72.8 µM
IGROV1 ovarian
  GI50: 2.61 µM
  TGI: 18.1 µM
UACC-257 melanoma
  GI50: 15 µM
  TGI: 43.3 µM
MDA-MB-231 breast
  GI50: 4.44 µM
  TGI: 17.6 µM
HOP-92 NSCLC
  GI50: 9.85 µM
  TGI: 21.5 µM

## CC[C@H](Nc1ncnc2nc[nH]c12)c1oc2ccccc2c(=O)c1-c1cccc(F)c1
NCI-H460 lung
  GI50: 18.8 µM
  TGI: 58.8 µM
KM12 colon
  GI50: 23.7 µM
  TGI: > 100 µM
EKVX NSCLC
  GI50: 31.8 µM
  TGI: > 100 µM
T-47D breast
  GI50: 8.24 µM
  TGI: > 100 µM
BT-549 breast
  GI50: 21.1 µM
  TGI: > 100 µM
M14 melanoma
  GI50: 28.1 µM
  TGI: > 100 µM
IGROV1 ovarian
  GI50: 15.2 µM
  TGI: 53.8 µM
UACC-257 melanoma
  GI50: 25.7 µM
  TGI: > 100 µM
MDA-MB-231 breast
  GI50: 16.6 µM
  TGI: 50.3 µM
HOP-92 NSCLC
  GI50: 4.99 µM
  TGI: 63.7 µM

## COc1cccc(-c2nc(-c3ccc(NC(=O)C(C)C)cc3)[nH]c2-c2ccnc(Br)c2)c1
NCI-H460 lung
  GI50: 3.2 µM
  TGI: 21.3 µM
KM12 colon
  GI50: 2.96 µM
  TGI: > 100 µM
EKVX NSCLC
  GI50: 2.43 µM
  TGI: 8.01 µM
T-47D breast
  GI50: 2.56 µM
  TGI: 11.5 µM
BT-549 breast
  GI50: 2.04 µM
  TGI: 80.1 µM
M14 melanoma
  GI50: 3.3 µM
  TGI: > 100 µM
IGROV1 ovarian
  GI50: 3.55 µM
  TGI: > 100 µM
UACC-257 melanoma
  GI50: 4.02 µM
  TGI: > 100 µM
MDA-MB-231 breast
  GI50: 4.09 µM
  TGI: > 100 µM
HOP-92 NSCLC
  GI50: 3.58 µM
  TGI: 48.4 µM

## N=Nc1c(OC(=O)Nc2cccc(Cl)c2)[nH]c2ccccc12
NCI-H460 lung
  TGI: 20 µM
KM12 colon
  TGI: 14.3 µM
EKVX NSCLC
  TGI: 16.8 µM
T-47D breast
  TGI: 7.34 µM
BT-549 breast
  TGI: 20.1 µM
M14 melanoma
  TGI: 18.6 µM
IGROV1 ovarian
  TGI: 21.4 µM
UACC-257 melanoma
  TGI: 26.7 µM
MDA-MB-231 breast
  TGI: 26.7 µM
HOP-92 NSCLC
  TGI: 18.1 µM
